What was measured:
Format in all cases: cell-based
lung cancer cell lines = assay: small-molecule inhibitor screen, apoptosis in lung cancer cell lines; conditions: AZD1775 in combination with cisplatin; multiple lung cancer cell lines
Excerpt: Since posttranslational phosphorylations are used by the DDR to coordinate cellular response to damage, 18 kinases found in this tBRCT PPIN were examined using a small-molecule inhibitor screen.

H322 cells [1] = assay: mitotic index at the G2/M checkpoint in H322 cells overexpressing full length PAXIP1; conditions: H322 cells with overexpression of full length PAXIP1, after AZD1775 treatment
[2] = test system: WEE1 and PAXIP1 positive patient-derived xenografts (PDX); assay: 3-D clonogenic assay of patient-derived xenograft (PDX) lung tumors, Chou-Talalay combination index; conditions: combination with cisplatin
Excerpt: Two tumors that were selected from a TMA of 68 lung tumors for 3-D clonogenic assays to test synergy of the combination of AZD1775 and cisplatin in these tumors. FIGS. 7A and 7C show percentage of tumor inhibition with different concentrations of AZD1775 and cisplatin. FIGS. 7B and 7D show combination index (CI) values obtained by applying the chou-[…] analysis to the percent inhibition values.

H322 cells [3] = assay: caspase-3 mediated apoptosis in H322 cells overexpressing PAXIP1; conditions: PAXIP1 overexpression, treated over 72 hours, compared to cells with low levels of PAXIP1
[4] = test system: lung cancer cell lines H322, H1648, H1395, H157; assay: cell viability by CellTiterGlo with synergy scores (Bliss model of independence); conditions: cells that express both PAXIP1 and WEE1; 72 h treatment; combination with cisplatin
Procedure: Lung adenocarcinoma cell lines 1-H322 (FIGS. 5A, 5B), H1648 (FIGS. 5E, 5F) and H1395 (FIGS. 5G, 5H) and a squamous lung cancer cell line H157 (FIG. 5C, 5D) were treated with AZD1775 and cisplatin either alone or in combination for 1 h and p-CDK1, PAXIP1 and WEE1 levels were measured (FIGS. 5A, 5C, 5E, […]). Cell lines were treated with AZD1775 and cisplatin for 72 h, cell viability was measured by CellTiterGlo and synergy scores were calculated (FIGS. 5B, 5D, 5F, 5H). Depicted in FIGS. 5B, 5D, 5F, and 5H are the three-dimensional dose-response surface curves with various combinations of drug concentrations (left) and the deviation from expected additive values determined by Bliss model of independence (right).

WEE1 = assay: p-CDC2 (p-CDK1) blots as marker for WEE1 inhibition in lung cancer cell lines; conditions: 15 lung cancer cell lines; AZD1775 as single agent or in combination with cisplatin; in lines with detectable (or elevated) PAXIP1 and WEE1
Excerpt: FIG. 2 is a series of blots showing PAXIP1, WEE1, and p-CDC2 (a.k.a. p-CDK1) levels in lung cancer cell lines treated with AZD1775 and Cisplatin. D: DMSO; M: AZD1775 only; C: Cisplatin only; M+C: AZD1775 and Cisplatin combination. AZD1775 is an ATP mimetic that targets the kinase activity of WEE1 and is currently being evaluated in clinical trials for several tumor types. Phosphorylation of CDC2 (a.k.a. CDK1) by WEE1 can be used as a marker for WEE1 inhibition.

Structure (SMILES): C=CCn1c(=O)c2cnc(Nc3ccc(N4CCN(C)CC4)cc3)nc2n1-c1cccc(C(C)(C)O)n1 [AZD1775, 2-allyl-1-(6-(2-hydroxypropan-2-yl)pyridin-2-yl)-6-((4-(4-methylpiperazin-1-yl)phenyl)amino)-1H-pyrazolo[3,4-d]pyrimidin-3(2H)-one]
- apoptosis (lung cancer cell lines): significant apoptosis
- mitotic index at the G2/M checkpoint (H322 cells [1]): increased mitotic index
- synergy of AZD1775 and cisplatin (tumor inhibition, combination index) [2]: exhibit synergy
- caspase-3 mediated apoptosis (H322 cells [3]): sustained increase in apoptosis
- caspase-3 mediated apoptosis (H322 cells [3]; listed as AZD 1775): sustained increase in caspase-3 mediated apoptosis
- synergy of AZD1775 and cisplatin (cell viability) [4]: exhibit synergy
- CDC2 phosphorylation (WEE1): repression of CDC2 phosphorylation

Source: patent US20170003292A1, “PAXIP1 AS A BIOMARKER FOR WEE1 INHIBITOR THERAPY” (H. LEE MOFFITT CANCER CENTER AND RESEARCH INSTITUT INC., priority 2014, published 2017)
